Laboratory results from patent US6585987B1, “Complexes of hyaluronic acid/carnitines and pharmaceutical and cosmetic compositions” (Continental Projects Limited, priority 1998, dated 2003).

Key:
[1] = test system: trophic ulcers of lower limbs; assay: Clinical trial in trophic ulcers of lower limbs, topical treatment; assay type: in vivo, human; conditions: for number of patients with VERY GOOD result: 30 patients; for overall results compared with the combination (in words): same treatment time
Protocol: The used protocol is the following one:
1) Topical administrations of a combination of hyaluronic acid and carnitine (1:1 by weight), or of carnitine alone or of hyaluronic acid alone, previous humidification of the lesion with saline for a time of 10 minutes. In the first treatments, it is possible to use hyaluronic acid at a higher concentration than carnitine, to promote ulcer cleansing. In the following treatments, such concentrations of the two molecules have been used as to better make use of the role of carnitine in normalizing tissue trophism. Treatment usually started during hospitalization and was subsequently continued at the nalgesic therapy clinic.
Patients enrolled in this trial came from Medicine and Surgery Departments, where they unsuccessfully received various medical treatments (mesoglycan, Connectivine, mucopolysaccharides).
18 females and 12 males were treated, of age from 62 to 80 years, with trophic ulcers of various size and at different sites, anyhow on limbs or feet.
Results were scored as follows: VERY GOOD, when the ulcer healed completely; GOOD, when an at least 50% reduction of the lesion was attained; NULL, when no significant changes of the lesion occurred after 30 day-treatment.

[2] = test system: barrier function of corneal epithelium; assay: Clinical trial in dry eye syndrome: barrier function of corneal epithelium (fluorescein test, fluorophotometry); assay type: in vivo, human; conditions: 27 dry eye patients, collyrium for 4 weeks; improvement after 2 weeks in lower cornea areas, 4 weeks in central ones
Source text: Dryness of the conjunctiva, isolated or in association with other ocular or extra-ocular disease, is recognizedly capable of inducing local damage on corneal epithelium which can, inter alia, lose its barrier function. […] According to the protocol, each patient received for 4 weeks a medication (hyaluronic acid) in the form of collyrium in one eye and a different treatment (hyaluronic acid/carnitine) in the other eye, so that each patient also acted as the control. Subjective evaluation and clinical examinations, associated with a fluorescein test, were carried out 2 weeks after the beginning of the treatment as well as at its end (4 weeks).

cartilage explants [3] = assay: PG and HA synthesis in cartilage explants (pulse studies, 3H-glucosamine); assay type: cell-based, human
Protocol: (§1) Thirty-five subjects were included in the study. Exclusion criteria were septicaemia, connective tissue disordes, rheumatoid arthritis, crystal deposition diseases, known hereditary or congenital defects, immobilization for several weeks as well as treatment with corticosteroids and cytotoxic drugs.
(§2) Tissue specimens obtained from each donor were cut into pieces of 3-6 mg in Dulbecco's modified Eagle's medium (DMEM) supplemented with penicillin (5.000 i.u. ml^−1) The tissue was washed 3 times with this culture medium. Cartilage pieces were taken at random, weighed and distributed into the different wells of multiwell culture plates (typically between 30 and 60 mg tissue/well). Extra pieces were not cultured but stored at −20° C. in order to assess the initial proteoglycans (PG) and HA contents of the cartilage. Culture medium supplemented with 20% (v/v) foetal calf serum (culture medium A) was then added to each well and the culture plates were placed in a 90%: 10% (v/v) air: CO2 humidified incubator for 48 h at 37° C.
(§3) For each experiment the cartilage from one individual was used and tissue cultures were conducted in triplicate: that is, for the control culture as well as for each HA, Acetyl-carnitine (ALC) or HA+ALC, 3 cartilage explants were cultured separately. Reported values are the mean of the triplicate cultures.
After 2 day of culture, the culture medium was aspirated and the explants were washed 3 times with 1 ml of DMEM. Explants were resuspended in 5% FCS culture medium (1 ml 50 mg^−1 tissue) supplemented with ^3H-glucosamine (50 μCi ml^−1) (culture medium B). To each well, a solution of HA, Acetyl-carnitine (ALC) or HA+ALC, was added ([…] in culture medium) to achieve the final concentration of 100 μg of HA and 100 μg of ALC. Control culture received medium alone. Culture wells were then incubated for 12 h. […]
(§4) The Econo-Pak Q column (5 ml) was pre-equilibrated in buffer A at a flow rate of 2 ml min^−1. […] Fractions of 2 ml were collected and assayed for radioactivity. […]

[4] = test system: Dithranol induced inflammation; assay: Antiinflammatory activity on dithranol induced cutaneous inflammation; assay type: in vivo, Guinea pigs; conditions: 48 hours
Source text: A specific cutaneous inflammatory reaction, caused by different phlogogenic factors both of exogenous and endogenous origin, including the formation of free radicals, lipoperoxides, prostaglandins and cytokines, is that induced by intradermal injection of dithranol, as described by Mustakallio (Mustakallio K., DERMATOVENER, 54, 125, 1979).
Dithranol is intradermally injected at the dose of 20 mcg on the back of shaved Guinea pigs.
On the opposite side of the back, before the injection of the same amount of dithranol, HA alone or acetyl-L-carnitine (AC) alone, or HA and AC together or the HA and AC complex, are spread.
A mixture of lanolin and ethylene glycol monostearate was used to spread these compounds.

ornithinedecarboxylase = assay: Increase of ornithinedecarboxylase activity induced by theleocidin in skin; assay type: in vivo, mice; conditions: epidermis five hours after
Protocol: These skin alterations increase the ornithinedecarboxylase enzyme, and this increase is related to the severity of the induced cutaneous damage.
In these experiences, theleocidin is injected on mice back shaved skin at a dosage of 5 mcg/mouse dissolved in 0.2 cc of solution.
HA and AC either administered alone, or together or in the form of a complex according to the invention, are spread five minute's before theleocidin on the backs of the animals. Ornithinedecarboxylase is dosed on the homogenised epidermis of the animals five hours after the theleocidin injection, according to the method by O'Brien and Nakadate (O'Brien T. G., Cancer Res., 35, 1662, 1975—Nakadate T. Cancer Res., 42, 2841, 1982). Protein concentration of an epidermis extract is evaluated following the method described by Lowry (Lowry O. H., J. Biol. Chem., 193, 265, […]).

cartilage explants [5] = assay: Net loss of labelled PG and HA from cartilage explants (chase studies); assay type: cell-based, human
Protocol: as §1, §2, §3
After one day of culture in medium A, the cartilage pieces were aspirated free of medium, washed 3 times with 1 ml of DMEM, resuspended in culture medium B (1 ml 50 mg^−1 tissue) and cultured for 12 h. After pulse labelling, the cartilage pieces were washed with DMEM and resuspended in culture medium A. Medium alone or the appropriate molecules (HA, ALC or HA+ALC) dissolved in medium were added to each well (10 μl ml^−1) as stated above and a non-radioactive chase period was conducted for 24 h. […]
as §4

[6] = 100 μg of HA and/or 100 μg of ALC, 12 h pulse

Molecule	patients with GOOD result (at least 50% reduction of the lesion) ([1]; 30 day-treatment)	number of patients with VERY GOOD result ([1]; 30 day-treatment)	overall results compared with the combination (in words) [1]	symptoms and barrier function of corneal epithelium (in words) [2]	HA synthesis d.p.m. [^3H] HA × 10^3/h/mg OH/proline (cartilage explants [3]; [6])	PG synthesis d.p.m. [^3H] PG × 10^3/h/mg OH/proline (cartilage explants [3]; [6])	PG and HA synthesis (in words) (cartilage explants [3]; text summary of Table 4)	% inhibition of phlogistic area compared with controls ([4]; 10 mg spread on skin before dithranol 20 mcg intradermal)	% inhibition of phlogistic area compared with controls ([4]; 50 mg spread on skin before dithranol 20 mcg intradermal)	inhibition of the inflammation area induced by dithranol ([4]; dose not stated)	ornithinedecarboxylase activity (ornithinedecarboxylase; 10 mg spread five minutes before theleocidin 5 mcg/mouse)	ornithinedecarboxylase activity (ornithinedecarboxylase; 50 mg spread five minutes before theleocidin 5 mcg/mouse)	net loss of labelled PGs and HA (in words) (cartilage explants [5]; 24 h chase, Table 5)	% of radiolabelled molecules recovered in the media, [^3H] HA Loss/24 h (cartilage explants [5]; 24 h non-radioactive chase)	% of radiolabelled molecules recovered in the media, [^3H] PG Loss/24 h (cartilage explants [5]; 24 h non-radioactive chase)
hyaluronic acid [HA]	16%	in no patients	remarkably poorer	did not provide significant advantages	4.5 ± 0.93 d.p.m. [^3H] HA × 10^3/h/mg OH/proline	39.2 ± 9.2 d.p.m. [^3H] PG × 10^3/h/mg OH/proline	slight increase	39 ± 1.6%	38 ± 2.9%	about 30%	21 ± 2.8 nmol of CO2/60 min./mg protein	31 ± 4.1 nmol of CO2/60 min./mg protein	reduced only the net loss of labelled HA	28.0 ± 6.09%	20.1 ± 7.5%
C[N+](C)(C)C[C@H](O)CC(=O)[O-] [L-Carnitine, L-carnitine]	–	in no patients	remarkably poorer	–	–	–	–	–	–	–	–	–	–	–	–
